Results: PubChem BioAssay AID1259407 (Chemical Carcinogenesis Research Information System (CCRIS), 2018)
The source made the active and inactive calls. The rule behind the calls is not given here.

Tested on: CCRIS mutagenicity, Ames/micronucleus/aberration tests
Assay: CCRIS mutagenicity studies
Conditions: Test System: AMES SALMONELLA TYPHIMURIUM
[1] = Strain/Indicator: TA100, Metabolic Activation: NONE, Method: STANDARD PLATE
[2] = Strain/Indicator: TA1537, Metabolic Activation: NONE, Method: STANDARD PLATE
[3] = Strain/Indicator: TA100, Metabolic Activation: NONE, Method: PREINCUBATION

SMILES: CCCCOc1ccc2nc3cc(Cl)ccc3c(NCCCNCCCl)c2n1
- mutagenic call (Strain/Indicator: TA98, Metabolic Activation: NONE, Method: STANDARD PLATE): active; positive
- mutagenic call [1]: inactive; negative
- mutagenic call (Strain/Indicator: TA1535, Metabolic Activation: NONE, Method: STANDARD PLATE): inactive; negative
- mutagenic call (Strain/Indicator: TA1536, Metabolic Activation: NONE, Method: STANDARD PLATE): active; positive
- mutagenic call [2]: active; positive
- mutagenic call (Strain/Indicator: TA1538, Metabolic Activation: NONE, Method: STANDARD PLATE): active; positive

SMILES: CC1CN(N=O)CC(C)O1 (stereo unspecified)
- mutagenic call (Strain/Indicator: TA100, Metabolic Activation: HAMSTER, LIVER, S-9, 3-METHYLCHOLANTHRENE, Method: PREINCUBATION): active; positive
- mutagenic call (Strain/Indicator: TA100, Metabolic Activation: HAMSTER, LIVER, S-9, PHENOBARBITAL, Method: PREINCUBATION): active; positive
- mutagenic call (Strain/Indicator: TA100, Metabolic Activation: HAMSTER, LIVER, S-9, Method: PREINCUBATION): active; positive
- mutagenic call (Strain/Indicator: TA100, Metabolic Activation: HUMAN, LIVER, S-9, Method: PREINCUBATION): inactive; negative
- mutagenic call (Strain/Indicator: TA100, Metabolic Activation: MONKEY, LIVER, S-9, Method: PREINCUBATION): active; positive
- mutagenic call (Strain/Indicator: TA100, Metabolic Activation: MOUSE, LIVER, S-9, 3-METHYLCHOLANTHRENE, Method: PREINCUBATION): active; positive
- mutagenic call (Strain/Indicator: TA100, Metabolic Activation: MOUSE, LIVER, S-9, PHENOBARBITAL, Method: PREINCUBATION): active; positive
- mutagenic call (Strain/Indicator: TA100, Metabolic Activation: MOUSE, LIVER, S-9, Method: PREINCUBATION): active; positive
- mutagenic call [3]: inactive; negative
- mutagenic call (Strain/Indicator: TA100, Metabolic Activation: RABBIT, LIVER, S-9, Method: PREINCUBATION): active; positive
- mutagenic call (Strain/Indicator: TA100, Metabolic Activation: RAT, LIVER, CYTOSOL, PCB, Method: PREINCUBATION): inactive; negative
- mutagenic call (Strain/Indicator: TA100, Metabolic Activation: RAT, LIVER, MICROSOMES AND CYTOSOL, PCB, Method: PREINCUBATION): active; positive
- mutagenic call (Strain/Indicator: TA100, Metabolic Activation: RAT, LIVER, MICROSOMES AND G6PDH, PCB, Method: PREINCUBATION): active; positive
- mutagenic call (Strain/Indicator: TA100, Metabolic Activation: RAT, LIVER, MICROSOMES, PCB, Method: PREINCUBATION): active; positive
- mutagenic call (Strain/Indicator: TA100, Metabolic Activation: RAT, LIVER, S-9 (HEATED), PCB, Method: PREINCUBATION): inactive; negative
- mutagenic call (Strain/Indicator: TA100, Metabolic Activation: RAT, LIVER, S-9, 3-METHYLCHOLANTHRENE, Method: PREINCUBATION): active; positive
- mutagenic call (Strain/Indicator: TA100, Metabolic Activation: RAT, LIVER, S-9, PCB, Method: PREINCUBATION): active; positive
- mutagenic call (Strain/Indicator: TA100, Metabolic Activation: RAT, LIVER, S-9, PHENOBARBITAL, Method: PREINCUBATION): active; positive
- mutagenic call (Strain/Indicator: TA100, Metabolic Activation: RAT, LIVER, S-9, Method: PREINCUBATION): active; positive
- mutagenic call (Strain/Indicator: TA100, Metabolic Activation: RAT, LIVER, S-9 WITHOUT NADP+, PCB, Method: PREINCUBATION): inactive; negative
- mutagenic call (Strain/Indicator: TA100, Method: PREINCUBATION): active; positive

SMILES: O=C1Nc2cc3ccccc3c3c4c(cc1c23)OCO4
- mutagenic call [1]: inactive; negative
- mutagenic call (Strain/Indicator: TA100, Metabolic Activation: RAT, LIVER, S-9, AROCLOR 1254, Method: STANDARD PLATE): active; positive
- mutagenic call [2]: inactive; negative
- mutagenic call (Strain/Indicator: TA1537, Metabolic Activation: RAT, LIVER, S-9, AROCLOR 1254, Method: STANDARD PLATE): active; positive

SMILES: CCCCC(CC)COCCCN (stereo unspecified)
- mutagenic call (Strain/Indicator: TA97, Metabolic Activation: HAMSTER, LIVER, S-9, AROCLOR 1254 (10%), Method: PREINCUBATION): inactive; negative
- mutagenic call (Strain/Indicator: TA97, Metabolic Activation: HAMSTER, LIVER, S-9, AROCLOR 1254 (30%), Method: PREINCUBATION): inactive; negative
- mutagenic call (Strain/Indicator: TA97, Metabolic Activation: NONE, Method: PREINCUBATION): inactive; negative
- mutagenic call (Strain/Indicator: TA97, Metabolic Activation: RAT, LIVER, S-9, AROCLOR 1254 (10%), Method: PREINCUBATION): inactive; negative
- mutagenic call (Strain/Indicator: TA97, Metabolic Activation: RAT, LIVER, S-9, AROCLOR 1254 (30%), Method: PREINCUBATION): inactive; negative
- mutagenic call (Strain/Indicator: TA98, Metabolic Activation: HAMSTER, LIVER, S-9, AROCLOR 1254 (10%), Method: PREINCUBATION): inactive; negative
- mutagenic call (Strain/Indicator: TA98, Metabolic Activation: HAMSTER, LIVER, S-9, AROCLOR 1254 (30%), Method: PREINCUBATION): inactive; negative
- mutagenic call (Strain/Indicator: TA98, Metabolic Activation: NONE, Method: PREINCUBATION): inactive; negative
- mutagenic call (Strain/Indicator: TA98, Metabolic Activation: RAT, LIVER, S-9, AROCLOR 1254 (10%), Method: PREINCUBATION): inactive; negative
- mutagenic call (Strain/Indicator: TA98, Metabolic Activation: RAT, LIVER, S-9, AROCLOR 1254 (30%), Method: PREINCUBATION): inactive; negative
- mutagenic call (Strain/Indicator: TA100, Metabolic Activation: HAMSTER, LIVER, S-9, AROCLOR 1254 (10%), Method: PREINCUBATION): inactive; negative
- mutagenic call (Strain/Indicator: TA100, Metabolic Activation: HAMSTER, LIVER, S-9, AROCLOR 1254 (30%), Method: PREINCUBATION): inactive; negative
- mutagenic call [3]: inactive; negative
- mutagenic call (Strain/Indicator: TA100, Metabolic Activation: RAT, LIVER, S-9, AROCLOR 1254 (10%), Method: PREINCUBATION): inactive; negative
- mutagenic call (Strain/Indicator: TA100, Metabolic Activation: RAT, LIVER, S-9, AROCLOR 1254 (30%), Method: PREINCUBATION): inactive; negative
- mutagenic call (Strain/Indicator: TA1535, Metabolic Activation: HAMSTER, LIVER, S-9, AROCLOR 1254 (10%), Method: PREINCUBATION): inactive; negative
- mutagenic call (Strain/Indicator: TA1535, Metabolic Activation: HAMSTER, LIVER, S-9, AROCLOR 1254 (30%), Method: PREINCUBATION): inactive; negative
- mutagenic call (Strain/Indicator: TA1535, Metabolic Activation: NONE, Method: PREINCUBATION): inactive; negative
- mutagenic call (Strain/Indicator: TA1535, Metabolic Activation: RAT, LIVER, S-9, AROCLOR 1254 (10%), Method: PREINCUBATION): inactive; negative
- mutagenic call (Strain/Indicator: TA1535, Metabolic Activation: RAT, LIVER, S-9, AROCLOR 1254 (30%), Method: PREINCUBATION): inactive; negative
